What was measured:
[1] = Cytotoxicity against human HuH7 cells after 2 hrs by WST-1 assay relative to control; type: cell-based, Huh-7
Hepatitis C virus = experiment: Antiviral activity against HCV genotype 1b infected in human HuH7 cells assessed as inhibition of viral RNA replication after 3 days by luciferase reporter gene assay; type: functional, organism-based, Hepacivirus hominis; conditions: Huh-7, 72 h

SMILES	CC50 at 2 h [1] [µM]	IC50 (Hepatitis C virus) [µM]
CCC(=O)O[C@H]1[C@@](C)(F)[C@H](n2ccc(=O)[nH]c2=O)O[C@]1(F)COP(=O)(N[C@@H](C)C(=O)OC(C)C)Oc1cccc2ccccc12 (stereo partly specified)	67.8	0.151
CC(C)OC(=O)[C@H](C)NP(=O)(OC[C@@]1(F)O[C@@H](n2ccc(=O)[nH]c2=O)[C@](C)(F)[C@@H]1O)Oc1ccc2ccccc2c1 (stereo partly specified)	> 100	
CC(C)OC(=O)[C@H](C)NP(=O)(OC[C@@]1(F)O[C@@H](n2ccc(=O)[nH]c2=O)[C@](C)(F)[C@@H]1O)Oc1cccc2ccccc12 (stereo partly specified)	> 100	0.115
CC(C)OC(=O)[C@H](C)NP(=O)(OC[C@@]1(F)O[C@@H](n2ccc(=O)[nH]c2=O)[C@](C)(F)[C@@H]1O)Oc1ccccc1 (stereo partly specified)	> 100	

Source: ChEMBL document CHEMBL3124819, “2',4'-Difluoro-2'-methyl Substituted Nucleoside Derivatives as Inhibitors of HCV RNA Replication” (ACS Med Chem Lett, 2014)
